Assays:
[1] = molecular target: T1, human B1R receptor (hB1R) (Homo sapiens, UniProt P46663); assay: FLIPR Ca2+ assay on hB1R-transfected CHO K1 cells, antagonistic action; format: cell-based; conditions: CHO-K1, 10 μM test substance; agonist Lys-Des-Arg9-bradykinin 0.5 nM; % of maximum achievable inhibition; read-out: hB1R [10 μM] % inhibition
T1 construct: host or cells: CHO K1 cells
T1 sequence (P46663 1-353): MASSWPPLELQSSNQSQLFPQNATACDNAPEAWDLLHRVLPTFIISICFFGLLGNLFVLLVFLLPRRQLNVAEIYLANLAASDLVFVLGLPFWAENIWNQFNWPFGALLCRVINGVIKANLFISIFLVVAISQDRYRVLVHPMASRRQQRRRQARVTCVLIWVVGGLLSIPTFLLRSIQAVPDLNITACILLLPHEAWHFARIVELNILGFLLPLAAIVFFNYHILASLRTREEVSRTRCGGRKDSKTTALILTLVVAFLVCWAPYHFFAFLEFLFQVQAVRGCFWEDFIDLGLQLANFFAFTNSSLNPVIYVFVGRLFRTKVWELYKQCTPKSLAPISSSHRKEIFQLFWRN

[2] = molecular target: T2, B1R receptor of the rat (rB1R) (Rattus norvegicus, UniProt P97583); assay: FLIPR Ca2+ assay on rB1R-transfected CHO K1 cells, antagonistic action; format: cell-based; conditions: CHO-K1, 10 μM test substance; agonist Des-Arg9-bradykinin 100 nM; % of maximum achievable inhibition; read-out: rB1R [10 μM] % inhibition
T2 construct: host or cells: CHO K1 cells
T2 sequence (P97583 1-337): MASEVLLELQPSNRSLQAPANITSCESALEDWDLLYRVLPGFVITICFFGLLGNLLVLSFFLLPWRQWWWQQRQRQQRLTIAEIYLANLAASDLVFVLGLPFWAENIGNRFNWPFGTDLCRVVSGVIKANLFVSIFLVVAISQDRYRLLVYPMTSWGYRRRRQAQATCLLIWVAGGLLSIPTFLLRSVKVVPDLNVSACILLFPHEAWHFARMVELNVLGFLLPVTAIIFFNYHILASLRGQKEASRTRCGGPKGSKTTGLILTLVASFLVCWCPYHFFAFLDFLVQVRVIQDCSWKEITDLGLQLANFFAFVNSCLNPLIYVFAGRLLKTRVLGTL

SMILES | inhibition at 10 µM [1] | inhibition at 10 µM [2]
COc1cc(C)c(S(=O)(=O)N2CCCCC2COCC(=O)N(C)CCC2CCC(c3ccccc3)(N3CCCC3)CC2)c(C)c1 (centres unmarked) [Compound 60, 2-((1-(4-methoxy-2,6-dimethylphenylsulfonyl)piperidin-2-yl)methoxy)-N-methyl-N-(2-(4-phenyl-4-(pyrrolidin-1-yl)cyclohexyl)ethyl)acetamide] | 103% | 100%
CN(C)C1(c2cccc(F)c2)CCC(NC(=O)COCCN(C)S(=O)(=O)c2ccc(Cl)cc2Cl)CC1 (centres unmarked) [Compound 21, 2-(2-(2,4-dichloro-N-methylphenylsulfonamido)ethoxy)-N-(4-(dimethylamino)-4-(3-fluorophenyl)cyclohexyl)acetamide] | 29% | 67%
COc1cc(C)c(S(=O)(=O)N(C)CCOCC(=O)N2CCC(c3cccnc3)(N(C)C)CC2)c(C)c1 [Compound 208, N-(2-(2-(4-(Dimethylamino)-4-(pyridin-3-yl)piperidin-1-yl)-2-oxoethoxy)ethyl)-4-methoxy-N,2,6-trimethylbenzenesulfonamide] | 100% | 102%
CN(CCC1CCC(Cc2ccccc2)(N2CCCC2)CC1)C(=O)CC1CCCCN1S(=O)(=O)c1cccc(C(F)(F)F)c1 (centres unmarked) [Compound 121, N-(2-(4-benzyl-4-(pyrrolidin-1-yl)cyclohexyl)ethyl)-N-methyl-2-(1-(3-(trifluoromethyl)phenylsulfonyl)piperidin-2-yl)acetamide] | 102% | 66%
COc1cc(C)c(S(=O)(=O)N(C)CCOCC(=O)NC2CCC(Cc3ccc(F)cc3)(N(C)C)CC2)c(C)c1 (centres unmarked) [Compound 9, N-(4-(dimethylamino)-4-(4-fluorobenzyl)cyclohexyl)-2-(2-(4-methoxy-N,2,6-trimethylphenylsulfonamido)ethoxy)acetamide] | 104% | 95%
CN(CCC1CCC(c2ccccc2)(N(C)C)CC1)C(=O)CC1CCCCN1S(=O)(=O)c1cccc(C(F)(F)F)c1 (centres unmarked) [Compound 125, N-(2-(4-(dimethylamino)-4-phenylcyclohexyl)ethyl)-N-methyl-2-(1-(3-(trifluoromethyl)phenylsulfonyl)piperidin-2-yl)acetamide] | 98% | 56%
COc1cc(C)c(S(=O)(=O)N2CCCCC2COCC(=O)N(C)CC2CCC(CCc3ccccc3)(N3CCN(C)CC3)CC2)c(C)c1 (centres unmarked) [Compound 144, 2-((1-(4-methoxy-2,6-dimethylphenylsulfonyl)piperidin-2-yl)methoxy)-N-methyl-N-((4-(4-methylpiperazin-1-yl)-4-phenethylcyclohexyl)methyl)acetamide] | 103% | 111%
COc1cc(C)c(S(=O)(=O)N2CCC(OCC(=O)N(C)CC3CCC(Cc4ccccc4)(N4CCN(C)CC4)CC3)C2)c(C)c1 (centres unmarked) [Compound 174, N-((4-benzyl-4-(4-methylpiperazin-1-yl)cyclohexyl)methyl)-2-(1-(4-methoxy-2,6-dimethylphenylsulfonyl)pyrrolidin-3-yloxy)-N-methylacetamide] | 99% | 78%
COc1cc(C)c(S(=O)(=O)N2CCCCC2COCC(=O)NC2CCC(Cc3ccccc3)(N3CCOCC3)CC2)c(C)c1 (centres unmarked) [Compound 155, N-(4-benzyl-4-morpholinocyclohexyl)-2-((1-(4-methoxy-2,6-dimethylphenylsulfonyl)piperidin-2-yl)methoxy)acetamide] | 97% | 100%
COc1cc(C)c(S(=O)(=O)N(C)CCOCC(=O)NC2CCC(Cc3ccccc3)(N3CCOCC3)CC2)c(C)c1 (centres unmarked) [Compound 171, N-(4-benzyl-4-morpholinocyclohexyl)-2-(2-(4-methoxy-N,2,6-trimethylphenylsulfonamido)ethoxy)acetamide] | 75% | 82%
Cc1cccc(Cl)c1S(=O)(=O)N1CCCCC1CCCC(=O)N1CCC(c2cccc(F)c2)(N2CCN(C)CC2)CC1 (centres unmarked) [Compound 212, 4-(1-(2-Chloro-6-methylphenylsulfonyl)piperidin-2-yl)-1-(4-(3-fluorophenyl)-4-(4-methylpiperazin-1-yl)piperidin-1-yl)butan-1-one] | 100% | 100%
CN(CCC1CCC(Cc2ccccc2)(N2CCCC2)CC1)C(=O)CC(NS(=O)(=O)c1ccc2ccccc2c1)c1ccccc1 (centres unmarked) [Compound 56, N-(2-(4-benzyl-4-(pyrrolidin-1-yl)cyclohexyl)ethyl)-N-methyl-3-(naphthalene-2-sulfonamido)-3-phenylpropanamide] | 101% | 100%
CN1CCN(C2(c3cccc(F)c3)CCN(C(=O)COCC3COc4ccccc4N3S(=O)(=O)c3ccccc3C(F)(F)F)CC2)CC1 (centres unmarked) [Compound 223, 1-(4-(3-Fluorophenyl)-4-(4-methylpiperazin-1-yl)piperidin-1-yl)-2-((4-(2-(trifluoromethyl)phenylsulfonyl)-3,4-dihydro-2H-benzo[b][1,4]oxazin-3-yl)methoxy)ethanone] | 84% | 97%
CN(CCOCC(=O)NC1CCC(c2ccccc2)(N2CCCC2)CC1)S(=O)(=O)c1ccc(Cl)cc1Cl (centres unmarked) [Compound 179, 2-(2-(2,4-dichloro-N-methylphenylsulfonamido)ethoxy)-N-(4-phenyl-4-(pyrrolidin-1-yl)cyclohexyl)acetamide] | 41% | 75%
COc1cc(C)c(S(=O)(=O)N(C)CCOCC(=O)N(C)CC2CCC(Cc3ccccc3)(N3CCN(C)CC3)CC2)c(C)c1 (centres unmarked) [Compound 183, N-((4-benzyl-4-(4-methylpiperazin-1-yl)cyclohexyl)methyl)-2-(2-(4-methoxy-N,2,6-trimethylphenylsulfonamido)ethoxy)-N-methylacetamide] | 102% | 66%
Cc1cc(S(=O)(=O)N2CCCCC2CCC(=O)N(C)CCC2CCC(c3ccccc3)(N3CCCC3)CC2)c(C)cc1Cl (centres unmarked) [Compound 139, 3-(1-(4-chloro-2,5-dimethylphenylsulfonyl)piperidin-2-yl)-N-methyl-N-(2-(4-phenyl-4-(pyrrolidin-1-yl)cyclohexyl)ethyl)propanamide] | 105% | 24%
CN(CCC1CCC(c2ccccc2)(N(C)C)CC1)C(=O)COCC1CCc2ccccc2N1S(=O)(=O)c1ccc(Cl)c(Cl)c1 (centres unmarked) [Compound 111, 2-((1-(3,4-dichlorophenylsulfonyl)-1,2,3,4-tetrahydroquinolin-2-yl)methoxy)-N-(2-(4-(dimethylamino)-4-phenylcyclohexyl)ethyl)-N-methylacetamide] | 80% | 78%
COc1cc(C)c(S(=O)(=O)N2CCCCC2COCC(=O)NC2CCC(c3ccccc3)(N3CCCC3)CC2)c(C)c1 (centres unmarked) [Compound 147, 2-((1-(4-methoxy-2,6-dimethylphenylsulfonyl)piperidin-2-yl)methoxy)-N-(4-phenyl-4-(pyrrolidin-1-yl)cyclohexyl)acetamide] | 94% | 108%
CN(C)C1(c2ccccc2)CCC(NC(=O)COC2CCN(S(=O)(=O)c3c(Cl)cc(Cl)cc3Cl)C2)CC1 (centres unmarked) [Compound 198, N-(4-(dimethylamino)-4-phenylcyclohexyl)-2-(1-(2,4,6-trichlorophenylsulfonyl)pyrrolidin-3-yloxy)acetamide] | 63% | 47%

Reference: US20090253669A1, “Substituted Sulfonamide Compounds” (GRUENENTHAL GmbH, priority 2008, published 2009)
